Data as given in patent publication US6423744B1, “Method of diminishing the adverse effects of interleukin-2” (Biomedicines, Inc., priority 1998, dated 2002).

Legend:
[1] = tested on: B16/BL6 murine melanoma tumor cells; assay: Murine model of B16 melanoma lung metastases (Example 5); format: in vivo
Method: The B16/BL6 murine melanoma tumor cells for injection were obtained from in vitro culture. Mice were inoculated with 3×10^5 cells intravenously on Day 0.
Tumor cells were injected on Day 0. […] An additional group of 15 untreated control mice was used for timing the termination of the study. At Day 10, three untreated control mice were to be euthanized each day until tumor burden was determined to be optimal for counting metastatic foci, at which time the remaining rumored and five non-rumored mice were to be euthanized and lungs removed for determination of body weights, lung weights and numbers of metastatic foci.
Anti-tumor activity was assessed by counts of metastatic foci in the lungs. Comparison among the three treatment groups (Groups 1, 2 and 3) was performed using one-way ANOVA (or Kruskal-Wallis one-way analysis of variance on ranks for data with non-normal distribution) with the three between-group comparisons performed using adjustment for multiple comparisons.

[2] = tested on: IL-2-induced reduction in oxygenation; conditions: rat
Method: Animals were weighed on the day of dosing and the appropriate doses of IL-2 and/or LA were calculated. The animals remained conscious throughout the experiment until an anesthetic was administered approximately 10 minutes before exsanguination. The anesthetic consisted of a mixture of ketamine (45 mg/ml) xylazine (2.5 mg/ml), and acepromazine (0.37 mg/ml) diluted with water and administered subcutaneously at a dose of 2.0 ml/kg.
Group 1 (n=14) consisted of control animals that received both i.v. and i.p. injections of vehicle. The other five groups received i.v. injections of IL-2 via the tail vein. Groups 2 (n=8), 3 (n=4), and 4 (n=10) received IL-2 in doses of 1.5, 6.0, and 12.5 million IU(MIU)/kg, respectively. In addition to 12.5 million IU/kg of IL-2, Groups 5 (n=8) and 6 (n=13) received i.p. injections of the LA. The LA was administered in two equal, divided doses; the first dose of LA was given 20 minutes before administration of IL-2 and the second dose was given 50 minutes after administration of IL-2. Group 5 was administered 2×10 mg/kg of the LA. Group 6 was administered 2×30 mg/kg of the LA.
Two hours after the IL-2 injection, the animals were exsanguinated via the abdominal aorta and the arterial blood was collected for measurement of PaO2.
Whole arterial blood was collected into heparinized blood arterial gas syringes. Immediately after collection, the blood sample was analyzed using PaO2 electrode model DO-166FT. Sample blood was pre-oxygenated and used as a standard before and after each test sample.
Data are shown as mean±SEM. Data were analyzed using the Tukey-Kramer test (JMP® statistical software from SAS, Inc.) Significance was defined as a p-value less than 0.05.

IL-2-induced toxicity [3] = conditions: rat, in vivo
Method: (§1) Six groups of animals were studied (total N=59). […] The animals remained conscious throughout the experiment until an anesthetic was administered approximately 10 minutes before planned exsanguination. The anesthetic consisted of a mixture of ketamine (45 mg/ml), xylazine (2.5 mg/ml), and acepromazine (0.37 mg/ml) diluted with water and administered subcutaneously at a dose of 2.0 ml/kg.
(§2) IL-2 or IL-2 vehicle was administered by bolus injection via the tail vein. […] Two hours after the injection of IL-2 or IL-2 vehicle, animals were exsanguinated via the abdominal aorta and the arterial blood was collected for measurement of PaO2.
(§3) Group 1 (n=13) consisted of control animals that received injections of each vehicle, either i.v. or i.p. as appropriate. The other five groups received i.v. bolus injections of IL-2 via the tail vein. Groups 2 (n=8), 3 (n=5), and 4 (n=13) received IL-2 in doses of 1.5, 6.0, and 12.5 million IU/kg, respectively.
The study was conducted in two phases.
(§4) Whole arterial blood was collected into heparinized syringes. Immediately after collection, the blood sample was analyzed using a Lazar Research Laboratories flow-through dissolved-oxygen probe. The cell temperature was set to 37 degrees centigrade. A syringe pump was set to 0.5 ml/min to introduce the sample. The cell was zeroed using a solution of heparin and isotonic saline equilibrated with 100% nitrogen. The cell was then calibrated using a solution of heparin and isotonic saline equilibrated with 20% oxygen. After each PaO2 determination in whole blood was made, the cell was washed with heparin ad isotonic saline. A 20% O2 standard was introduced before each sample to ensure accurate and reliable measurements.
(§5) If the data appeared to be normally distributed, the comparison was to be made using Student's t-test.

renal cell carcinoma [4] = conditions: IL-2 treatment alone; cited from earlier work
LTB4 chemotaxis [5] = assay: Inhibition of LTB4 chemotaxis (in vitro); format: cell-based
[6] = tested on: human neutrophil adhesion to LTB4-stimulated umbilical vein endothelial cells; assay: Inhibition of human neutrophil adhesion to LTB4-stimulated umbilical vein endothelial cells; format: cell-based
[7] = tested on: LTB4-induced neutrophil granulation; assay: Inhibition of LTB4-induced neutrophil granulation; format: cell-based
LTB4 synthesis = assay: Inhibition of LTB4 synthesis; format: biochemical
[8] = tested on: LTA4 conversion into LTB4; assay: Inhibition of LTA4 conversion into LTB4; format: biochemical
LTB4 chemotaxis [9] = assay: Inhibition of LTB4 chemotaxis in guinea pigs; format: in vivo; conditions: Cavia porcellus, po; i.g.
12 (R)-HETE = assay: Inhibition of 12 (R)-HETE in guinea pigs; format: in vivo; conditions: Cavia porcellus, po; i.g.
[10] = tested on: acetic acid colonic inflammation; assay: Inhibition of acetic acid colonic inflammation; format: in vivo; conditions: Rattus norvegicus, po; i.g.; read-out: Inhibition of acetic acid colonic inflammation in rats and guinea pig, ED50
[11] = tested on: calcium ionophore dermal inflammation; assay: Inhibition of calcium ionophore dermal inflammation in the guinea pig ear; conditions: in vivo
[12] = Biomed 101 plasma levels in rats (HPLC); format: in vivo, Sprague Dawley rats; conditions: rat
Method: In animals dosed with Biomed 101, plasma levels of Biomed 101 were assayed with a validated, high-pressure liquid chromatographic method.

[13] = format: in vivo; conditions: intraperitoneal, bid for 4 days, tumored mice treated with IL-2; preliminary study
renal cell carcinoma [14] = assay: Clinical trial of LA plus IL-2 in patients with renal cell carcinoma (Example 6); format: in vivo, human
Method: A preferred LA compound (as defined in Example 3) from drug substance lot # BA901 was supplied as 25 mg capsules Batch # 99G111 by BioMedicines, Inc. Each hard gelatin capsule contained 25 mg LA plus excipients including lactose hydrous NF; hydroxypropylmethylcellulose 2910, 6 cps USP; sodium lauryl sulfate NF; purified water, USP; and sodium chloride.
Patients received IL-2 600,000 IU/kg by intravenous bolus three times daily during 5 days for a planned total of 14 doses. LA was administered orally 1 hour prior to each schedule dose of IL-2 as well as 8 hours after the final scheduled dose. If dose of IL-2 was withheld because of IL-2 induced toxicity, dosing with LA continued. Doses of LA ranged from 25 mg three times daily (TID) to 75 mg TID. Plasma levels of LA were obtained at each dose level.
The principal activity endpoint was the relationship between the total number of doses of IL-2 that could be administered and well tolerated by patients and the plasma levels of LA. A second endpoint was the response rate in patients of the tumor to the combination therapy with the leukotriene B4 receptor antagonist and IL-2 as judged by complete responses (total disappearance of measurable tumor) or partial responses (a ≧50% decrease in measurable tumor volume).
Data were analyzed by examining the significance of the correlation between number of doses of IL-2 and LA plasma level (Spearman's rho).

IL-2-induced toxicity [15] = assay: Rat model of IL-2-induced toxicity, PaO2 (Example 4); conditions: Biomed 101 (20 or 60 mg/kg total i.p.) with IL-2 12.5 MIU/kg
Method: as §1, §2, §3
The study was conducted in two phases.
as §4, §5

Compound: des-alanyl-1, serine-125 human interleukin-2 [IL-2]
- Median Lung Weight ([1]; Day 10, vehicle control 174): 177 mg
- lung weights compared with vehicle control ([1]; Kruskal-Wallis): did not decrease
- deaths ([1]; mice, Group 2, IL-2 1 mg/kg iv, Day 4): one death
- Changes in Metastases (mean) (N) ([1]; treated group compared with control (untreated) group): −32 N
- arterial oxygen level (PaO2), mean±SEM ([2]; in vivo, iv): 77.5±2.5 mm Hg
- effect of progressively higher doses on arterial oxygen levels ([2]; in vivo, iv): progressively reduced
- Change in Oxygen (mean) (mm Hg) (IL-2-induced toxicity [3]): −15 mm Hg
- decrease of mean PaO2 for each increase of 1 MIU/kg in IL-2 administered (IL-2-induced toxicity [3]): approximately 1.8 mm Hg
- effect on PaO2 (IL-2-induced toxicity [3]): significant fall
- objective response rate historically noted (renal cell carcinoma [4]): 8-10%

Compound: CCCc1c(OCCCOc2ccc(C(C)=O)c(OC)c2CCC)ccc2c1OC(C(=O)O)CC2 (racemic) [Biomed 101, (±)7-[3-(4-acetyl-3-methoxy-2-propylphenoxy)propoxy]-3,4-dihydro-8-propyl-2H-1-benzopyran-2-carboxylic acid]
- Inhibition of LTB4 chemotaxis, range (LTB4 chemotaxis [5]): 0.3 to 3.0 µM
- Inhibition of human neutrophil adhesion to LTB4-stimulated umbilical vein endothelial cells, range [6]: 0.3 to 1.0 µM
- Inhibition of LTB4-induced neutrophil granulation, range [7]: 1 to 3 µM
- IC50 (LTB4 synthesis): 2.1 µM
- IC50 [8]: 20 µM
- ED50 (LTB4 chemotaxis [9]): 0.6 mg/kg
- ED50 (12 (R)-HETE): 20 mg/kg
- ED50 [10]: 20 mg/kg
- Inhibition of calcium ionophore dermal inflammation in the guinea pig ear, ED50 [11]: 0.7 mg/ear
- mean plasma level (± standard error of the mean) of Biomed 101 ([12]; 20 mg/kg Biomed 101 i.p. (2×10 mg/kg)): 2.0 (±0.26) μg/ml
- mean plasma level (± standard error of the mean) of Biomed 101 ([12]; 60 mg/kg Biomed 101 i.p. (2×30 mg/kg)): 6.4 (±0.89) μg/ml
- Number of lung mets Mean (± SEM) ([1]; Day 10, IL-2 1 mg/kg iv, Biomed 101 25 mg/kg ip with IL-2, q6hx2, qdx4, vehicle control 98): 56
- effect of coadministration on the anti-tumor activity of IL-2 ([1]; mice, Biomed 101 25 mg/kg ip with IL-2): fully preserves and may enhance
- highest tolerated dose [13]: 25 mg/kg bid
- number of doses of IL-2 withheld because of IL-2 toxicity as plasma level of LA increased (renal cell carcinoma [14]): decreased
- total number of doses of IL-2 well tolerated as LA dose and plasma level rose (renal cell carcinoma [14]): rose
- plasma level of LA with total daily dose (renal cell carcinoma [14]; 25 mg TID to 75 mg TID orally): increased
- effect of LA on the reduction in oxygenation induced by IL-2 ([2]; LA 2×10 or 2×30 mg/kg i.p. with IL-2 12.5 MIU/kg i.v., p>0.5 vs control, p<0.001 vs IL-2 alone): mitigated
- Median PaO2 versus IL-2 alone (IL-2-induced toxicity [15]): significantly higher
- Median PaO2 versus control animals (IL-2-induced toxicity [15]): not significantly different
